# Test results published in patent US11370763B2, “Compounds and compositions for treating conditions associated with NLRP activity” (Novartis AG, priority 2017, dated 2022).
# System: IL-1β production in PMA-differentiated THP-1 cells
# Test: IL-1β production in PMA-differentiated THP-1 cells stimulated with gramicidin (hTHP-1 assay containing 2% fetal bovine serum; Procedures 1-3)
# Format: cell-based, human
# Conditions: Homo sapiens, THP-1, hTHP-1 assay containing 2% fetal bovine serum; class symbols; read-out: hTHP-1 IC50 (Average IC50 of compounds in hTHP-1 assay)
# In short: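 THP-1 cells differentiated with PMA (20 ng/ml, 16-18 h), replated in 2% FBS RPMI (50,000 cells/well), preincubated 1 h with compound (top final 100 μM, 3-fold steps, 0.37% DMSO), then stimulated 2 h with gramicidin (5 μM). Supernatant IL-1β measured by HTRF.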
row,Compound,IC50 [nM]
1,"CC(C)c1cc(-c2ccc3c(c2)CCOC3)cc(C(C)C)c1CC(=O)N=S(=O)(NC(=O)OC(C)(C)C)c1cnc(C(C)(C)O)s1 (stereo not drawn) [Example 138, tert-butyl (2-(2-hydroxypropan-2-yl)-N-(2-(4-(isochroman-6-yl)-2,6-diisopropylphenyl)acetyl)thiazole-5-sulfonimidoyl)carbamate]",1000 to 5000
2,"CC(C)c1cc(-c2ccc3c(c2)CCOC3)cc(C(C)C)c1CC(=O)N=S(N)(=O)c1cnc(C(C)(C)O)s1 (stereo not drawn) [Example 139, N-(amino(2-(2-hydroxypropan-2-yl)thiazol-5-yl)(oxo)-λ^6-sulfaneylidene)-2-(4-(isochroman-6-yl)-2,6-diisopropylphenyl)acetamide]",200 to 1000
3,"CC(C)c1cc(COC2CCCC2)cc(C(C)C)c1CC(=O)N=S(=O)(NC(=O)OC(C)(C)C)c1cnc(C(C)(C)O)s1 (stereo not drawn) [Example 140, tert-butyl (N-(2-(4-((cyclopentyloxy)methyl)-2,6-diisopropylphenyl)acetyl)-2-(2-hydroxypropan-2-yl)thiazole-5-sulfonimidoyl)carbamate]",200 to 1000
4,"CC(C)c1cc(COC2CCCC2)cc(C(C)C)c1CC(=O)N=S(N)(=O)c1cnc(C(C)(C)O)s1 (stereo not drawn) [Example 141, N-(amino(2-(2-hydroxypropan-2-yl)thiazol-5-yl)(oxo)-λ^6-sulfaneylidene)-2-(4-((cyclopentyloxy)methyl)-2,6-diisopropylphenyl)acetamide]",40 to 200
5,"CC(C)c1cc2c(c(C(C)C)c1CC(=O)N=S(N)(=O)c1cnc(C(C)(C)O)s1)CCC2 (stereo not drawn) [Example 142, N-(amino(2-(2-hydroxypropan-2-yl)thiazol-5-yl)(oxo)-λ^6-sulfaneylidene)-2-(4,6-diisopropyl-2,3-dihydro-1H-inden-5-yl)acetamide]",1000 to 5000
6,"COc1cc(C(C)C)c(CC(=O)NS(=O)(=O)c2ncc(C(C)(C)O)s2)c(C(C)C)n1 [Example 143, 2-(2,4-diisopropyl-6-methoxypyridin-3-yl)-N-((5-(2-hydroxypropan-2-yl)thiazol-2-yl)sulfonyl)acetamide]",1000 to 5000
7,"CC(C)c1ncc(F)c(C(C)C)c1CC(=O)N=S(N)(=O)c1ncc(C(C)(C)O)s1 (stereo not drawn) [Example 144, N-(amino(5-(2-hydroxypropan-2-yl)thiazol-2-yl)(oxo)-λ^6-sulfaneylidene)-2-(5-fluoro-2,4-diisopropylpyridin-3-yl)acetamide]",5000 to 30000
8,"CC(C)c1ncc(F)c(C(C)C)c1CC(=O)N=S(N)(=O)c1cc(C(C)(C)O)cs1 (stereo not drawn) [Example 145, N-(amino(4-(2-hydroxypropan-2-yl)thiophen-2-yl)(oxo)-λ^6-sulfaneylidene)-2-(5-fluoro-2,4-diisopropylpyridin-3-yl)acetamide]",200 to 1000
9,"CC(C)c1ncc(F)c(C(C)C)c1CC(=O)N=S(N)(=O)c1cnc(C(C)(C)O)s1 (stereo not drawn) [Example 146, N-(amino(2-(2-hydroxypropan-2-yl)thiazol-5-yl)(oxo)-λ^6-sulfaneylidene)-2-(5-fluoro-2,4-diisopropylpyridin-3-yl)acetamide]",5000 to 30000
10,"CC(C)c1ncc(F)c(C(C)C)c1CC(=O)N=S(N)(=O)c1nc(C(C)(C)O)cs1 (stereo not drawn) [Example 147, N-(amino(4-(2-hydroxypropan-2-yl)thiazol-2-yl)(oxo)-λ^6-sulfaneylidene)-2-(5-fluoro-2,4-diisopropylpyridin-3-yl)acetamide]",1000 to 5000
11,"CC(C)c1ncc(F)c(C(C)C)c1CC(=O)N=S(N)(=O)c1ccn(C(C)C)n1 (stereo not drawn) [Example 148, N-(amino(1-isopropyl-1H-pyrazol-3-yl)(oxo)-λ^6-sulfaneylidene)-2-(5-fluoro-2,4-diisopropylpyridin-3-yl)acetamide]",5000 to 30000
12,"CC(C)c1ncc(F)c(C(C)C)c1CC(=O)N=S(N)(=O)c1sc(C(C)(C)O)cc1F (stereo not drawn) [Example 149, N-(amino(3-fluoro-5-(2-hydroxypropan-2-yl)thiophen-2-yl)(oxo)-λ^6-sulfaneylidene)-2-(5-fluoro-2,4-diisopropylpyridin-3-yl)acetamide]",200 to 1000
13,"Cc1ncc(C(C)C)c(CC(=O)N=S(N)(=O)c2sc(C(C)(C)O)cc2F)c1C(C)C (stereo not drawn) [Example 150, N-(amino(3-fluoro-5-(2-hydroxypropan-2-yl)thiophen-2-yl)(oxo)-λ^6-sulfaneylidene)-2-(3,5-diisopropyl-2-methylpyridin-4-yl)acetamide]",5000 to 30000
14,"CC(C)c1cc(C#N)nc(C(C)C)c1CC(=O)N=S(N)(=O)c1cc(C(C)(C)O)cs1 (stereo not drawn) [Example 151, N-(amino(4-(2-hydroxypropan-2-yl)thiophen-2-yl)(oxo)-λ^6-sulfaneylidene)-2-(6-cyano-2,4-diisopropylpyridin-3-yl)acetamide]",200 to 1000
15,"COCc1cc(C(C)C)c(CC(=O)N=S(N)(=O)c2cc(C(C)(C)O)cs2)c(C(C)C)n1 (stereo not drawn) [Example 152, N-(amino(4-(2-hydroxypropan-2-yl)thiophen-2-yl)(oxo)-λ^6-sulfaneylidene)-2-(2,4-diisopropyl-6-(methoxymethyl)pyridin-3-yl)acetamide]",200 to 1000
16,"CC(C)c1nc(C(F)(F)F)nc(C(C)C)c1CC(=O)N=S(N)(=O)c1cnc(C(C)(C)O)s1 (stereo not drawn) [Example 153, N-(amino(2-(2-hydroxypropan-2-yl)thiazol-5-yl)(oxo)-λ^6-sulfaneylidene)-2-(4,6-diisopropyl-2-(trifluoromethyl)pyrimidin-5-yl)acetamide]",1000 to 5000
17,"CC(C)c1cnc(F)c(C(C)C)c1CC(=O)N=S(N)(=O)c1cnc(C(C)(C)O)s1 (stereo not drawn) [Example 154, N-(amino(2-(2-hydroxypropan-2-yl)thiazol-5-yl)(oxo)-λ^6-sulfaneylidene)-2-(2-fluoro-3,5-diisopropylpyridin-4-yl)acetamide]",5000 to 30000
18,"CC(C)c1cc2c(c(C(C)C)c1CC(=O)N=S(N)(=O)c1cc(C(C)(C)O)cs1)COC2 (stereo not drawn) [Example 220, N-(amino(4-(2-hydroxypropan-2-yl)thiophen-2-yl)(oxo)-λ^6-sulfaneylidene)-2-(4,6-diisopropyl-1,3-dihydroisobenzofuran-5-yl)acetamide]",40 to 200
19,"CC(C)c1cc2c(c(C(C)C)c1CC(=O)N=S(N)(=O)c1ccn(C(C)C)n1)COC2 (stereo not drawn) [Example 221, N-(amino(1-isopropyl-1H-pyrazol-3-yl)(oxo)-λ^6-sulfaneylidene)-2-(4,6-diisopropyl-1,3-dihydroisobenzofuran-5-yl)acetamide]",5000 to 30000
20,"CC(C)c1cc(C#N)c(F)c(C(C)C)c1CC(=O)N=S(N)(=O)c1ncc(C(C)(C)O)s1 (stereo not drawn) [compound 13, 2-(4-cyano-3-fluoro-2,6-diisopropylphenyl)-N-(5-(2-hydroxypropan-2-yl)thiazol-2-ylsulfonimidoyl)acetamide]",200 to 1000
21,"COc1ccc(CNS(=O)(=NC(=O)Cc2c(C(C)C)cc(F)cc2C(C)C)c2ncc(C(C)(C)O)s2)cc1 (stereo not drawn) [compound 41, 2-(4-fluoro-2,6-diisopropylphenyl)-N-(5-(2-hydroxypropan-2-yl)-N-(4-methoxybenzyl)thiazole-2-sulfonimidoyl)acetamide]",5000 to 30000
